# Source: publication PMC11790660 (Frontiers in Chemistry, 2025)
# Where two headings read alike, the source gives them in different places.
# Columns and labels:
# [1] = tested on: HeLa; experiment: cells; format: cell-based; conditions: read-out: IC50 against cell proliferation, HeLa
# [2] = tested on: HepG2 cell lines (liver tumor cell); experiment: cells; conditions: Homo sapiens, HepG2, 24 h, read-out: IC50 HepG2
# [3] = tested on: LO2 cell lines (normal liver cell); experiment: cells; conditions: Homo sapiens, L02, 24 h, read-out: IC50 LO2
# [4] = tested on: HepG2 cell lines (liver tumor cell); conditions: for IC50: read-out: IC50 HepG2
# [5] = tested on: A549; experiment: cells; format: cell-based
# [6] = tested on: LO2 cell lines (normal liver cell); conditions: for IC50: read-out: IC50 LO2
# [7] = tested on: MCF-7; experiment: cells; format: cell-based
# [8] = tested on: WI38 normal cells; experiment: cells; conditions: Homo sapiens, WI-38, read-out: IC50 WI38
# [9] = tested on: WI38 normal cells; conditions: for IC50: read-out: IC50 WI38
# [10] = H2S release, methylene blue (MB+) method; format: physicochemical; conditions: MB+ method with TECP or cysteine; different temperature and pH
# [11] = molecular target: PI3Kα (Homo sapiens, UniProt P42336); experiment: In vitro PI3K enzyme inhibitory assay (ADP-Glo), PI3Kα; format: biochemical; conditions: read-out: PI3Kα % inhibition at 10 μM
# [12] = molecular target: PI3Kγ (Homo sapiens, UniProt P48736); experiment: In vitro PI3K enzyme inhibitory assay (ADP-Glo), PI3Kγ; format: biochemical; conditions: read-out: PI3Kγ % inhibition at 10 μM
# [13] = molecular target: PI3Kβ (Homo sapiens, UniProt P42338); experiment: In vitro PI3K enzyme inhibitory assay (ADP-Glo), PI3Kβ; format: biochemical; conditions: read-out: PI3Kβ % inhibition at 10 μM
# [14] = tested on: AKT; experiment: In vitro AKT enzyme inhibitory assay; format: biochemical
# [15] = Homo sapiens, A549, read-out: IC50 against cell proliferation, A549
# [16] = Homo sapiens, MCF7, read-out: IC50 against cell proliferation, MCF-7
# [17] = read-out: IC50 against cell proliferation, A549
# [18] = read-out: IC50 against cell proliferation, MCF-7
# Sequence of PI3Kγ (P48736 whole entry): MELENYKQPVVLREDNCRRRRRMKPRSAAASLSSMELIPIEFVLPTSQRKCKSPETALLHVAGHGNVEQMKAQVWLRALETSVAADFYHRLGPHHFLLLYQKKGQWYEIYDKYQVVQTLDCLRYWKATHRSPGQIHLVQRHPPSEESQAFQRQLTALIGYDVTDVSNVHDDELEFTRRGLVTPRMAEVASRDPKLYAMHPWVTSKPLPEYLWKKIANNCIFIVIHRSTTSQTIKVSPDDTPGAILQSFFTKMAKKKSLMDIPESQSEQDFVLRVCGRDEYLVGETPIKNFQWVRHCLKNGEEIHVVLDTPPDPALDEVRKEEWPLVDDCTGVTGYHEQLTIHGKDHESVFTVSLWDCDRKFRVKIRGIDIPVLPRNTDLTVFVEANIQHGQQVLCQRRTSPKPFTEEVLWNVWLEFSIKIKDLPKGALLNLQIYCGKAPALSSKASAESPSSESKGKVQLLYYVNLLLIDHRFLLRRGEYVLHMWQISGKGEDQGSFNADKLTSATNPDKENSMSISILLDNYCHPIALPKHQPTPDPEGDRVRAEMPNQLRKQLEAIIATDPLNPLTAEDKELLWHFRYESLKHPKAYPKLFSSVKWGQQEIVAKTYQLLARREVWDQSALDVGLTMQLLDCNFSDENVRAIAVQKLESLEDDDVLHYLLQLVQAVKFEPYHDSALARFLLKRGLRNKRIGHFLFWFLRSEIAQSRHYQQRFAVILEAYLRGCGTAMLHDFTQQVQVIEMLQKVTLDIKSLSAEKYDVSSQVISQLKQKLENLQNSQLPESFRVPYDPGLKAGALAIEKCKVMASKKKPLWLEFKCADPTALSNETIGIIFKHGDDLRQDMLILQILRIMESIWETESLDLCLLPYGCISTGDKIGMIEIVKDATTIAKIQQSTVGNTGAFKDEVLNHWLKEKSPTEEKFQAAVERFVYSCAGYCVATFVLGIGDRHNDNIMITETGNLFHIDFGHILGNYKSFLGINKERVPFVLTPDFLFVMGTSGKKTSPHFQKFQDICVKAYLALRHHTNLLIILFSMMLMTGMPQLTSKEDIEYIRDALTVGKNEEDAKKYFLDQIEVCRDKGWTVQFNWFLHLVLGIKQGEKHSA
# Sequence of PI3Kβ (P42338 whole entry): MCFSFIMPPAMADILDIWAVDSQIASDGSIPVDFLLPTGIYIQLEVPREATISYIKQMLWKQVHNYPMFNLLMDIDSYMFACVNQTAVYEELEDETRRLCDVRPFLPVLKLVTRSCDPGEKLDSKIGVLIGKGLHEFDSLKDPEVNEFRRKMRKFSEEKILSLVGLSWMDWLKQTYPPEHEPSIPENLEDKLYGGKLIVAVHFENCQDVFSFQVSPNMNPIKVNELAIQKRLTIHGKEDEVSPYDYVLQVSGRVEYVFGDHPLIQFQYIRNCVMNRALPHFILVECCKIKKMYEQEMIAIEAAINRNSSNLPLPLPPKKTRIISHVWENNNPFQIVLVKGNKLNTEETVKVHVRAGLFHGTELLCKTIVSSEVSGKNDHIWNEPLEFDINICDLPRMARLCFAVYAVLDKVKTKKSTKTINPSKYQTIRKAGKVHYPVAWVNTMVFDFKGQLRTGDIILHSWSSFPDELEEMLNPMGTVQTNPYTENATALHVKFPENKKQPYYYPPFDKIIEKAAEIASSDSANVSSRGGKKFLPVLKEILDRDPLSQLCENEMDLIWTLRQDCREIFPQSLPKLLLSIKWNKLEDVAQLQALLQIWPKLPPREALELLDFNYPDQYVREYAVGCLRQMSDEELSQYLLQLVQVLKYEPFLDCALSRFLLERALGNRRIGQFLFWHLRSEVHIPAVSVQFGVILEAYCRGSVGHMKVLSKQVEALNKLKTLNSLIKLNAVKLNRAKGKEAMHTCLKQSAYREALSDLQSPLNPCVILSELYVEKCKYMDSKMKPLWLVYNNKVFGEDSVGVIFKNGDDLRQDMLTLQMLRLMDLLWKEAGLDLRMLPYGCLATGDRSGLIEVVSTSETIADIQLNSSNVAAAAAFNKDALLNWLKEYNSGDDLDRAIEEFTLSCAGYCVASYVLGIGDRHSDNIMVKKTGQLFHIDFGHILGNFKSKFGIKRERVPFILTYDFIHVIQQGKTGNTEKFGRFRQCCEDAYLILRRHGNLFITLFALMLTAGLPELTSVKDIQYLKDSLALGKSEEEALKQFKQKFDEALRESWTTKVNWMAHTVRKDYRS
# Sequence of PI3Kβ (P27986 whole entry partner): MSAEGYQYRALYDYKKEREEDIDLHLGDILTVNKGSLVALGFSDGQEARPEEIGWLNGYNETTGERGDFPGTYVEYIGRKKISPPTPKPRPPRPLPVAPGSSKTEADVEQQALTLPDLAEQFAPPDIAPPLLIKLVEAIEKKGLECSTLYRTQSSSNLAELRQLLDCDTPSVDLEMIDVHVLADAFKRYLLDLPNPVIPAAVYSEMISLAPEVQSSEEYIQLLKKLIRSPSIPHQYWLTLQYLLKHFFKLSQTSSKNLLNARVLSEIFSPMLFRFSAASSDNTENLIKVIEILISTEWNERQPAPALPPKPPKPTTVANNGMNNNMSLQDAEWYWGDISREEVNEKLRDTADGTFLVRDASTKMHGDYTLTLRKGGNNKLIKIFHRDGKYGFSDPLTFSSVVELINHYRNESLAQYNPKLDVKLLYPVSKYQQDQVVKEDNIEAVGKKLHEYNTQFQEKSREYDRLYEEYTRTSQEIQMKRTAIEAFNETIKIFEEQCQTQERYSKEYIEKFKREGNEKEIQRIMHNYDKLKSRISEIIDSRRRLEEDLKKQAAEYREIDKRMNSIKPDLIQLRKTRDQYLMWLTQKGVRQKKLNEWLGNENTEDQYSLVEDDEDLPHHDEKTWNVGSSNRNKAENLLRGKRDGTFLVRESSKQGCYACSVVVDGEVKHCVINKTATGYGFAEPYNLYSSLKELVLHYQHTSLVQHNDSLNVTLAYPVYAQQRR
# Sequence of PI3Kα (P42336 whole entry): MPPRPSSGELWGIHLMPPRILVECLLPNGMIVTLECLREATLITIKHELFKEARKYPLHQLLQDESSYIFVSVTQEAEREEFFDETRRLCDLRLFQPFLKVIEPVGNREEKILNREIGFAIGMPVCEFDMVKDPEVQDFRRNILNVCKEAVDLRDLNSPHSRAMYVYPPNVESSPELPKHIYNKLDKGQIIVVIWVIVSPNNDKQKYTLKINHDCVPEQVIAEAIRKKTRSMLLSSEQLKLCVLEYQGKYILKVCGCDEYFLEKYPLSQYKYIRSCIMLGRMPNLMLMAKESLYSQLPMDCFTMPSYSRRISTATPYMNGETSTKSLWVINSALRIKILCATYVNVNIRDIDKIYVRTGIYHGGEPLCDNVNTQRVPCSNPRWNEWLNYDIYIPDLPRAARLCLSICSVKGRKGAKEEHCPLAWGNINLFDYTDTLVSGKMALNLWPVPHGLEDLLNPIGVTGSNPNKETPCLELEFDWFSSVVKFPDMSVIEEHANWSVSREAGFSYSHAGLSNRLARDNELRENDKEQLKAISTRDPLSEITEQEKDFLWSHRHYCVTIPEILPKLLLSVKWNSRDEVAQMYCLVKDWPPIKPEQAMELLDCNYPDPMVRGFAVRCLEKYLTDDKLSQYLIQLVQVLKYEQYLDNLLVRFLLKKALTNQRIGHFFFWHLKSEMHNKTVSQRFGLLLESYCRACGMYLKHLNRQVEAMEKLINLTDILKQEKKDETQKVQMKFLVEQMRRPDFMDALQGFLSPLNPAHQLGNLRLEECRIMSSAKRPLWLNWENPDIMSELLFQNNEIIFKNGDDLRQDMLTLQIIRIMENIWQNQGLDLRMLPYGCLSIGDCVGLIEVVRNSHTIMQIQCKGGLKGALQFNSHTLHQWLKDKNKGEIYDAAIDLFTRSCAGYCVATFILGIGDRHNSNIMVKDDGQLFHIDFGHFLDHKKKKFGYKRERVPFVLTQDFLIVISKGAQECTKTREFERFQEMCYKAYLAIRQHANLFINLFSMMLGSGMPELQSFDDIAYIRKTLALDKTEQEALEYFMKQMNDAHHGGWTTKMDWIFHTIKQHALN
# Sequence of PI3Kα (P27986 whole entry partner): as the sequence (P27986 whole entry partner) above
structure (smiles),measurement,setting,value
"S=P1(c2ccccc2)NCCO1 (stereo not drawn) [Compound S2, 2-phenyl-1,3,2-oxazaphospholidine 2-sulfide]",IC50,"[1]; Homo sapiens, HeLa",736 ± 22.1 µM
same,IC50,[2],> 400 µM
same,IC50,[3],> 200 µM
same,"Toxicity in words, HepG2",[4],low cytotoxicity
same,IC50,[5]; [15],650 ± 32.5 µM
same,"Toxicity in words, LO2",[6],low cytotoxicity
same,IC50,[7]; [16],455 ± 3.2 µM
same,IC50,[8],> 200 µM
same,"Toxicity in words, WI38",[9],low cytotoxicity
"S=P1(c2ccccc2)NCCCO1 (stereo not drawn) [Compound S3, 2-phenyl-1,3,2-oxazaphosphinane 2-sulfide]",IC50,"[1]; Homo sapiens, HeLa",826 ± 17.1 µM
same,IC50,[2],> 400 µM
same,IC50,[3],> 200 µM
same,"Toxicity in words, HepG2",[4],low cytotoxicity
same,IC50,[5]; [15],700 ± 32.3 µM
same,"Toxicity in words, LO2",[6],low cytotoxicity
same,IC50,[7]; [16],470 ± 4.1 µM
same,IC50,[8],> 200 µM
same,"Toxicity in words, WI38",[9],low cytotoxicity
"S=P1(c2ccccc2)NCCCCO1 (stereo not drawn) [Compound S4, 2-phenyl-1,3,2-oxazaphosphepane 2-sulfide]",IC50,"[1]; Homo sapiens, HeLa",836 ± 19.7 µM
same,IC50,[2],> 400 µM
same,IC50,[3],> 200 µM
same,"Toxicity in words, HepG2",[4],low cytotoxicity
same,IC50,[5]; [15],720 ± 22.4 µM
same,"Toxicity in words, LO2",[6],low cytotoxicity
same,IC50,[7]; [16],472 ± 3.3 µM
same,IC50,[8],> 200 µM
same,"Toxicity in words, WI38",[9],low cytotoxicity
"S=P1(c2ccccc2)NCCCCCO1 (stereo not drawn) [Compound S5, 2-phenyl-1,3,2-oxazaphosphocane 2-sulfide]",IC50,"[1]; Homo sapiens, HeLa",622 ± 20.6 µM
same,IC50,[2],> 400 µM
same,IC50,[3],> 200 µM
same,"Toxicity in words, HepG2",[4],low cytotoxicity
same,IC50,[5]; [15],680 ± 20.5 µM
same,"Toxicity in words, LO2",[6],low cytotoxicity
same,IC50,[7]; [16],468 ± 3.4 µM
same,IC50,[8],> 200 µM
same,"Toxicity in words, WI38",[9],low cytotoxicity
"S=P1(c2ccccc2)NCCCCCCO1 (stereo not drawn) [Compound S6, 2-phenyl-1,3,2-oxazaphosphonane 2-sulfide]",IC50,"[1]; Homo sapiens, HeLa",645 ± 15.5 µM
same,IC50,[2],> 400 µM
same,IC50,[3],> 200 µM
same,"Toxicity in words, HepG2",[4],low cytotoxicity
same,IC50,[5]; [15],710 ± 22.6 µM
same,"Toxicity in words, LO2",[6],low cytotoxicity
same,IC50,[7]; [16],471 ± 5.4 µM
same,IC50,[8],> 200 µM
same,"Toxicity in words, WI38",[9],low cytotoxicity
"S=P1(c2ccccc2)NCCCCN1 [Compound S7, 2-phenyl-1,3,2-diazaphosphepane 2-sulfide]",IC50,"[1]; Homo sapiens, HeLa",655 ± 15.3 µM
same,IC50,[2],> 400 µM
same,IC50,[3],> 200 µM
same,"Toxicity in words, HepG2",[4],low cytotoxicity
same,IC50,[5]; [15],730 ± 32.3 µM
same,"Toxicity in words, LO2",[6],low cytotoxicity
same,IC50,[7]; [16],473 ± 4.2 µM
same,IC50,[8],> 200 µM
same,"Toxicity in words, WI38",[9],low cytotoxicity
"S=P1(c2ccccc2)OCCCCO1 [Compound S8, 2-phenyl-1,3,2-dioxaphosphepane 2-sulfide]",IC50,[1],730 ± 20.5 µM
same,"Toxicity in words, HepG2",[4],low cytotoxicity
same,IC50,[4],> 400 µM
same,IC50,[5]; [17],803 ± 20.8 µM
same,"Toxicity in words, LO2",[6],low cytotoxicity
same,IC50,[6],> 200 µM
same,IC50,[7]; [18],480 ± 3.8 µM
same,"Toxicity in words, WI38",[9],low cytotoxicity
same,IC50,[9],> 200 µM
"S=P1(c2ccccc2)NCNCN1 [Compound S9, 2-phenyl-1,3,5,2-triazaphosphinane 2-sulfide]",IC50,"[1]; Homo sapiens, HeLa",730 ± 20.7 µM
same,IC50,[2],> 400 µM
same,IC50,[3],> 200 µM
same,"Toxicity in words, HepG2",[4],low cytotoxicity
same,IC50,[5]; [15],590 ± 27.1 µM
same,"Toxicity in words, LO2",[6],low cytotoxicity
same,IC50,[7]; [16],459 ± 3.7 µM
same,IC50,[8],> 200 µM
same,"Toxicity in words, WI38",[9],low cytotoxicity
"S=P1(c2ccccc2)SCCS1 [Compound S10, 2-phenyl-1,3,2-dithiaphospholane 2-sulfide]",IC50,"[1]; Homo sapiens, HeLa",603 ± 20.8 µM
same,IC50,[2],> 400 µM
same,IC50,[3],> 200 µM
same,"Toxicity in words, HepG2",[4],low cytotoxicity
same,IC50,[5]; [15],557 ± 18.5 µM
same,"Toxicity in words, LO2",[6],low cytotoxicity
same,IC50,[7]; [16],455 ± 2.4 µM
same,IC50,[8],> 200 µM
same,"Toxicity in words, WI38",[9],low cytotoxicity
"S=P1(c2ccccc2)Oc2ccccc2-c2ccccc2O1 [Compound S12, 6-phenyldibenzo [d, f][1,3,2] dioxaphosphepine 6-sulfide]",IC50,"[1]; Homo sapiens, HeLa",703 ± 17.7 µM
same,IC50,[2],> 400 µM
same,IC50,[3],> 200 µM
same,"Toxicity in words, HepG2",[4],low cytotoxicity
same,IC50,[5]; [15],640 ± 15.5 µM
same,"Toxicity in words, LO2",[6],low cytotoxicity
same,IC50,[7]; [16],164 ± 4.1 µM
same,IC50,[8],> 200 µM
same,"Toxicity in words, WI38",[9],low cytotoxicity
"S=P1(c2ccccc2)OCc2ccccc2CO1 [Compound S13, 3-phenyl-1,5-dihydrobenzo [e] [1,3,2] dioxaphosphepine 3-sulfide]",IC50,"[1]; Homo sapiens, HeLa",633 ± 18.3 µM
same,IC50,[2],> 400 µM
same,IC50,[3],> 200 µM
same,"Toxicity in words, HepG2",[4],low cytotoxicity
same,IC50,[5]; [15],500 ± 18.2 µM
same,"Toxicity in words, LO2",[6],low cytotoxicity
same,IC50,[7]; [16],460 ± 3.5 µM
same,IC50,[8],> 200 µM
same,"Toxicity in words, WI38",[9],low cytotoxicity
"Cc1ccc2c(c1)NP(=S)(c1ccccc1)O2 (stereo not drawn) [Compound S14, 5-methyl-2-phenyl-3H benzo [d][1,3,2] oxazaphosphole 2-sulfide]",IC50,[1],530 ± 11.3 µM
same,H2S release amount (in words),[10],the highest amount of hydrogen sulfide was released
same,IC50,[4],> 400 µM
same,IC50,[5]; [17],220 ± 20.1 µM
same,IC50,[6],> 200 µM
same,IC50,[7]; [18],31 ± 2.5 µM
same,IC50,[9],> 200 µM
"S=P1(c2ccccc2)Oc2ccc3cccc4c5cccc6ccc(c(c2c34)c65)O1 [Compound S15, 2-phenylperyleno [1,12-def][1,3,2] dioxaphosphepine 2-sulfide]",IC50,"[1]; Homo sapiens, HeLa",733 ± 28.2 µM
same,IC50,[2],> 400 µM
same,IC50,[3],> 200 µM
same,IC50,[5]; [15],520 ± 22.7 µM
same,IC50,[7]; [16],266 ± 3.5 µM
same,IC50,[8],> 200 µM
"N#Cc1ccc2c(c1)NP(=S)(c1ccccc1)O2 (stereo not drawn) [Compound S16, 2-phenyl-3H-benzo [d][1,3,2] oxazaphosphole-5-carbonitrile 2-sulfide]",IC50,[1],520 ± 20.3 µM
same,H2S release amount (in words),[10],the highest amount of hydrogen sulfide was released
same,IC50,[4],> 400 µM
same,IC50,[5]; [17],280 ± 28.3 µM
same,IC50,[6],> 200 µM
same,IC50,[7]; [18],28 ± 2.7 µM
same,IC50,[9],> 200 µM
"Oc1cccc(-c2nc(N3CCOCC3)c3oc4ncccc4c3n2)c1 [PI-103, reference compound]",inhibition at 10 µM,[11],100%
same,inhibition at 10 µM,[12],12%
same,inhibition at 10 µM,[13],5%
same,AKT % inhibition at 10 μM,[14],100%
